Reference: ChEMBL document CHEMBL4699440, “Comprehensive review on the anti-bacterial activity of 1,2,3-triazole hybrids” (Eur J Med Chem, 2019)
≈ marks a conversion by molar mass, not a printed value.

How the values were obtained:
[1] = system: Staphylococcus aureus; assay: Antibacterial activity against Staphylococcus aureus; assay type: functional
[2] = system: Bacillus cereus; assay: Antibacterial activity against Bacillus cereus; assay type: functional
[3] = system: KB; assay: Cytotoxicity against human KB cells; assay type: cell-based; conditions: Homo sapiens, KB

Row | SMILES | MIC [1] [µg/mL] | MIC [2] [µg/mL] | IC50 [3] [µg/mL]
1 | CC(C)C[C@H](NC(=O)CNC(=O)C(C)(C)NC(=O)[C@@H](NC(=O)C(C)(C)NC(=O)[C@H](CCC(N)=O)NC(=O)[C@H](C)NC(=O)C(C)(C)NC(=O)[C@H](C)NC(=O)C(C)(C)NC(=O)[C@@H]1CCN(C(=O)C(C)(C)n2cc(-c3cc4ccccc4c4ccccc34)nn2)C1)C(C)C)C(=O)NC(C)(C)C(=O)N1CCC[C@@H]1C(=O)N[C@H](C(=O)NC(C)(C)C(=O)NC(C)(C)C(=O)N[C@@H](CCC(N)=O)C(=O)N[C@@H](CCC(N)=O)C(=O)N[C@H](CO)Cc1ccccc1)C(C)C | 1.56 (≈ 0.726 µM) | 1.56 (≈ 0.726 µM) | 2.9 (≈ 1.35 µM)
2 | COc1ccc2ccc(-c3cn(C(C)(C)C(=O)N4CC[C@@H](C(=O)NC(C)(C)C(=O)N[C@@H](C)C(=O)NC(C)(C)C(=O)N[C@@H](C)C(=O)N[C@@H](CCC(N)=O)C(=O)NC(C)(C)C(=O)N[C@H](C(=O)NC(C)(C)C(=O)NCC(=O)N[C@@H](CC(C)C)C(=O)NC(C)(C)C(=O)N5CCC[C@@H]5C(=O)N[C@H](C(=O)NC(C)(C)C(=O)NC(C)(C)C(=O)N[C@@H](CCC(N)=O)C(=O)N[C@@H](CCC(N)=O)C(=O)N[C@H](CO)Cc5ccccc5)C(C)C)C(C)C)C4)nn3)cc2c1 | 1.56 (≈ 0.733 µM) | 1.56 (≈ 0.733 µM) | 2.9 (≈ 1.36 µM)
3 | CC(C)C[C@H](NC(=O)CNC(=O)C(C)(C)NC(=O)[C@@H](NC(=O)C(C)(C)NC(=O)[C@H](CCC(N)=O)NC(=O)[C@H](C)NC(=O)C(C)(C)NC(=O)[C@H](C)NC(=O)C(C)(C)NC(=O)[C@@H]1CCN(C(=O)C(C)(C)n2cc(-c3ccc(-c4ccccc4)cc3)nn2)C1)C(C)C)C(=O)NC(C)(C)C(=O)N1CCC[C@@H]1C(=O)N[C@H](C(=O)NC(C)(C)C(=O)NC(C)(C)C(=O)N[C@@H](CCC(N)=O)C(=O)N[C@@H](CCC(N)=O)C(=O)N[C@H](CO)Cc1ccccc1)C(C)C | 1.56 (≈ 0.734 µM) | 1.56 (≈ 0.734 µM) | 2.9 (≈ 1.36 µM)
4 | CC(C)C[C@H](NC(=O)CNC(=O)C(C)(C)NC(=O)[C@@H](NC(=O)C(C)(C)NC(=O)[C@H](CCC(N)=O)NC(=O)[C@H](C)NC(=O)C(C)(C)NC(=O)[C@H](C)NC(=O)C(C)(C)NC(=O)[C@@H]1CCN(C(=O)C(C)(C)n2cc(-c3ccc4ccc5cccc6ccc3c4c56)nn2)C1)C(C)C)C(=O)NC(C)(C)C(=O)N1CCC[C@@H]1C(=O)N[C@H](C(=O)NC(C)(C)C(=O)NC(C)(C)C(=O)N[C@@H](CCC(N)=O)C(=O)N[C@@H](CCC(N)=O)C(=O)N[C@H](CO)Cc1ccccc1)C(C)C | 1.56 (≈ 0.718 µM) | 1.56 (≈ 0.718 µM) | 2.9 (≈ 1.33 µM)
5 | CC(C)C[C@H](NC(=O)CNC(=O)C(C)(C)NC(=O)[C@@H](NC(=O)C(C)(C)NC(=O)[C@H](CCC(N)=O)NC(=O)[C@H](C)NC(=O)C(C)(C)NC(=O)[C@H](C)NC(=O)C(C)(C)NC(=O)[C@@H]1CCN(C(=O)C(C)(C)n2cc(-c3ccc(F)c(F)c3)nn2)C1)C(C)C)C(=O)NC(C)(C)C(=O)N1CCC[C@@H]1C(=O)N[C@H](C(=O)NC(C)(C)C(=O)NC(C)(C)C(=O)N[C@@H](CCC(N)=O)C(=O)N[C@@H](CCC(N)=O)C(=O)N[C@H](CO)Cc1ccccc1)C(C)C | 1.56 (≈ 0.748 µM) | 1.56 (≈ 0.748 µM) | 2.9 (≈ 1.39 µM)
6 | CC(C)C[C@H](NC(=O)CNC(=O)C(C)(C)NC(=O)[C@@H](NC(=O)C(C)(C)NC(=O)[C@H](CCC(N)=O)NC(=O)[C@H](C)NC(=O)C(C)(C)NC(=O)[C@H](C)NC(=O)C(C)(C)NC(=O)[C@@H]1CCN(C(=O)C(C)(C)n2cc(-c3cccc(C(F)(F)F)c3)nn2)C1)C(C)C)C(=O)NC(C)(C)C(=O)N1CCC[C@@H]1C(=O)N[C@H](C(=O)NC(C)(C)C(=O)NC(C)(C)C(=O)N[C@@H](CCC(N)=O)C(=O)N[C@@H](CCC(N)=O)C(=O)N[C@H](CO)Cc1ccccc1)C(C)C | 1.56 (≈ 0.737 µM) | 1.56 (≈ 0.737 µM) | 2.9 (≈ 1.37 µM)
7 | CC(C)C[C@H](NC(=O)CNC(=O)C(C)(C)NC(=O)[C@@H](NC(=O)C(C)(C)NC(=O)[C@H](CCC(N)=O)NC(=O)[C@H](C)NC(=O)C(C)(C)NC(=O)[C@H](C)NC(=O)C(C)(C)NC(=O)[C@@H]1CCN(C(=O)C(C)(C)n2cc(-c3ccccc3C(F)(F)F)nn2)C1)C(C)C)C(=O)NC(C)(C)C(=O)N1CCC[C@@H]1C(=O)N[C@H](C(=O)NC(C)(C)C(=O)NC(C)(C)C(=O)N[C@@H](CCC(N)=O)C(=O)N[C@@H](CCC(N)=O)C(=O)N[C@H](CO)Cc1ccccc1)C(C)C | 1.56 (≈ 0.737 µM) | 1.56 (≈ 0.737 µM) | 2.9 (≈ 1.37 µM)
